Assay results reported in US8940863B2, “Selective anticancer chimeric peptides which bind neuropilin receptor” (Stella Pharma Corporation, priority 2008, dated 2015).
Where two headings read alike, the source gives them in different places. Values belong to the molecule of their own block, whether it stands above or below them. Non-standard residues stand in square brackets, D forms with d. Residues, ends and D or L forms follow the SMILES beside them. No end group written: not given here.

Tests used:
[1] = system: PE cell (pancreatic epidermal); experiment: Cell viability assay (WST-8); type: cell-based
Description: (§1) Correlation between IC50 values was observed.

SU.86.86 = conditions: for IC50: 48 h
T47D = experiment: Cell viability assay (WST-8); type: cell-based, human
Description: as §1

MRC-5 = experiment: Cell viability assay (WST-8)
H322 = conditions: H322; 72 hours
HEK293T = type: cell-based
HuCCT-1 = conditions: 48 h
U251 = conditions: 72 h
WI-38 = conditions: 72 h
KCCT873 = experiment: Cell viability assay (WST-8); type: cell-based; conditions: 72 h
A172 = experiment: Cell viability assay (WST-8); type: cell-based; conditions: 72 h
[2] = biological target: recombinant human EGF receptor (rhEGFR) (Homo sapiens, UniProt P00533); experiment: BIACORE binding to EGFR protein
Protocol: Surface plasmon resonance (SPR) experiments were performed with a BIACORE biosensor system 3000 (BIACORE Inc., Uppsala, Sweden). About 5000 RU of streptavidin (Sigma) was immobilized on the surface of CM5 sensor chips via N-hydroxysuccinimide and N-ethyl-N′-(dimethylaminopropyl) carbodiimide activation chemistry, and then 2000-3000 RU of peptide conjugated with biotin were injected over the streptavidin-immobilized sensor chip. As a control of nonspecific binding, the unreacted carboxymethyl groups of a sensor chip without immobilized streptavidin were blocked with ethanolamine. As an analyte, cell surface proteins which were prepared using the Mem-PER eukaryotic membrane protein extraction reagent kit (Pierce) were injected over the flow-cell in the flow rate of […]. at 25° C. […] All protein concentrations used in these experiments were determined by the Bradford method (Bradford M M. A rapid and sensitive method for the quantitation of microgram quantities of protein utilizing the principle of protein-dye binding. Anal Biochem 1976; 72:248-54). […]
Among the aforementioned mutated peptides, first, paying attention to the second H which has charge, K- and R-mutants were chemically synthesized. As described in Example 1, using BIACORE, binding affinity with recombinant human EGFR was evaluated by comparison with that of wild-type EGFR-binding peptide. […]

SU8686 = experiment: Annexin V flow cytometry; type: cell-based, human; conditions: 10 μM, three hours at 37° C.
Protocol: SU8686 cells were incubated with Sema3A (363-377)-kLytic peptide (10 μM) for three hours at 37° C., and were analyzed for Annexin V labeling by dual-color flow cytometry.

[3] = system: HC cell (hepatocyte cell); experiment: Cell viability assay (WST-8); type: cell-based, human; conditions: Human normal hepatocyte cell; 48 hours (Table 8); read-out: IC50
Description: as §1

Molecule: YHWYGYTPQNVIGGGLKLLKKLLKKLLKLL-NH2 (C-terminal amide; EB-original Lytic peptide; position 18, 21, 23, 24 and 28 are D-amino acids, and -CONH2 is existing at C-terminal.)
cytotoxicity to normal cell line MRC-5 (MRC-5; MRC-5, 72 hours): killed even normal cell line (MRC-5) at lower concentration

Molecule: YHWYGYTPQNVIGGGLKLLKKLLKKLLKLL-NH2 (YHWYGYTPQNVIGGGLK[dL]LK[dK]L[dL][dK]KLL[dK]LL-NH2; N-terminus assumed; SMILES CC[C@H](C)[C@H](NC(=O)[C@@H](NC(=O)[C@H](CC(N)=O)NC(=O)[C@H](CCC(N)=O)NC(=O)[C@@H]1CCCN1C(=O)[C@@H](NC(=O)[C@H](Cc1ccc(O)cc1)NC(=O)CNC(=O)[C@H](Cc1ccc(O)cc1)NC(=O)[C@H](Cc1c[nH]c2ccccc12)NC(=O)[C@H](Cc1c[nH]cn1)NC(=O)[C@@H](N)Cc1ccc(O)cc1)[C@@H](C)O)C(C)C)C(=O)NCC(=O)NCC(=O)NCC(=O)N[C@@H](CC(C)C)C(=O)N[C@@H](CCCCN)C(=O)N[C@H](CC(C)C)C(=O)N[C@@H](CC(C)C)C(=O)N[C@@H](CCCCN)C(=O)N[C@H](CCCCN)C(=O)N[C@@H](CC(C)C)C(=O)N[C@H](CC(C)C)C(=O)N[C@H](CCCCN)C(=O)N[C@@H](CCCCN)C(=O)N[C@@H](CC(C)C)C(=O)N[C@@H](CC(C)C)C(=O)N[C@H](CCCCN)C(=O)N[C@@H](CC(C)C)C(=O)N[C@@H](CC(C)C)C(N)=O) [EB-original lytic peptide]
cell-killing effect of chimeric peptide compared with lytic moiety alone (H322): did not show enhancement of cytotoxic activity

Molecule: NYQWVPYQGRVPYPRGGGKLLLKLLKKLLKLLKKK (Sema3A-lyticL chimeric peptide)
cell-killing effect compared with LyticL alone (SK-BR-3; SKBR3, 72 hours): cell-killing effect was enhanced
cell-killing effect compared with LyticL alone (SU.86.86; SU86.86, 72 hours): cell-killing effect was enhanced

Molecule: CC[C@H](C)[C@H](NC(=O)[C@H](CC(C)C)NC(=O)[C@H](CCC(N)=O)NC(=O)[C@@H](N)CCCCN)C(=O)N[C@@H](CCCNC(=N)N)C(=O)N[C@@H](Cc1ccccc1)C(=O)N[C@@H](CC(C)C)C(=O)N[C@@H](CCCCN)C(=O)N[C@@H](CCCNC(=N)N)C(=O)N[C@@H](CC(C)C)C(=O)N[C@@H](CC(=O)O)C(=O)N[C@@H](CCCNC(=N)N)C(=O)N[C@@H](CC(N)=O)C(=O)NCC(=O)NCC(=O)NCC(=O)N[C@@H](CCCCN)C(=O)N[C@@H](CC(C)C)C(=O)N[C@H](CC(C)C)C(=O)N[C@@H](CC(C)C)C(=O)N[C@@H](CCCCN)C(=O)N[C@H](CC(C)C)C(=O)N[C@@H](CC(C)C)C(=O)N[C@H](CCCCN)C(=O)N[C@H](CCCCN)C(=O)N[C@@H](CC(C)C)C(=O)N[C@@H](CC(C)C)C(=O)N[C@@H](CCCCN)C(=O)N[C@H](CC(C)C)C(=O)N[C@@H](CC(C)C)C(=O)N[C@@H](CCCCN)C(=O)N[C@@H](CCCCN)C(=O)N[C@@H](CCCCN)C(=O)O [IL4-lytic (L, D)] (H-KQLIRFLKRLDRNGGGKL[dL]LK[dL]L[dK][dK]LLK[dL]LKKK-OH; N-terminus and C-terminus assumed)
IC50 (U251): 6.6 ± 0.4 µM
IC50 ([1]; PE normal cells, 72 hours, Mean ± SD (Table 4), read-out: IC50): > 20 µM
IC50 (HEK293T; 72 h): 14.2 ± 1.3 µM
IC50 (BxPC-3; 72 h): 6.8 ± 0.3 µM
IC50 (MDA-MB-231; 72 h): 5.7 ± 0.4 µM
IC50 (WI-38): 16.1 ± 0.5 µM
IC50 (KCCT873): 5.9 ± 0.6 µM
IC50 (A172): 6.8 ± 0.4 µM

Molecule: YKWYGYTPQNVI (EGFR binding peptide) [K-substituted peptide]
biosensor response compared with wild-type EGFR-binding peptide [2]: some enhancement of biosensor response

Now from value to molecule, other results behind:

IC50 (BT-20; BT20 breast cancer cells, 48 hours (Table 6)): 38 µM
IC50 (Panc-1; Panc-1 cancer cells, 48 hours (Table 5)): 28.2 µM
IC50 (BxPC-3; 48 h): 38.5 µM
IC50 (MDA-MB-231; 48 h): 29.6 µM
IC50 (SU.86.86): 19.5 µM
IC50 (CFPAC-1; CFPAC-1 cancer cells, 48 hours (Table 5)): 22.6 µM
IC50 (T47D; T47D breast cancer cells, 48 hours (Table 6), read-out: IC50): 12.5 µM
Molecule: CC(C)C[C@H](NC(=O)[C@H](CCCCN)NC(=O)[C@@H](CC(C)C)NC(=O)[C@H](CC(C)C)NC(=O)[C@H](CCCCN)NC(=O)[C@H](CCCCN)NC(=O)[C@H](CC(C)C)NC(=O)[C@@H](CC(C)C)NC(=O)[C@@H](CCCCN)NC(=O)[C@H](CCCCN)NC(=O)[C@H](CC(C)C)NC(=O)[C@H](CC(C)C)NC(=O)[C@@H](CCCCN)NC(=O)[C@H](CC(C)C)NC(=O)[C@@H](N)CC(C)C)C(=O)O [nLytic, LLKLLKKLLKKLLKL] (H-LL[dK]LLK[dK][dL]LKKL[dL]KL-OH; N-terminus and C-terminus assumed)
IC50 ([1]; Pancreatic epithelium normal cells, 48 hours (Table 5), read-out: IC50): > 50 µM

IC50 (SK-BR-3; 48 h): 14.5 µM
IC50 (BT-20; 48 h): 11.4 µM
IC50 (HuCCT-1): 7.9 µM
IC50 (Panc-1; 48 h): 14.1 µM
IC50 (BxPC-3; 48 h): 14.7 µM
IC50 (MDA-MB-231; 48 h): 8.1 µM
IC50 (SU.86.86): 8 µM
IC50 (CFPAC-1; 48 h): 9.2 µM
IC50 (T47D; 48 h): 3.7 µM
Molecule: CC(C)C[C@H](NC(=O)[C@H](CCCCN)NC(=O)[C@@H](CC(C)C)NC(=O)[C@H](CC(C)C)NC(=O)[C@H](CCCCN)NC(=O)[C@H](CCCCN)NC(=O)[C@H](CC(C)C)NC(=O)[C@@H](CC(C)C)NC(=O)[C@@H](CCCCN)NC(=O)[C@H](CCCCN)NC(=O)[C@H](CC(C)C)NC(=O)[C@H](CC(C)C)NC(=O)[C@@H](CCCCN)NC(=O)[C@H](CC(C)C)NC(=O)[C@H](CC(C)C)NC(=O)CNC(=O)CNC(=O)[C@H](CCCNC(=N)N)NC(=O)[C@@H]1CCCN1C(=O)[C@H](Cc1ccc(O)cc1)NC(=O)[C@@H]1CCCN1C(=O)[C@@H](NC(=O)[C@H](CCCNC(=N)N)NC(=O)CN)C(C)C)C(=O)O [Sema3A(aa371-377)-nLytic] (H-GRVPYPRGGLL[dK]LLK[dK][dL]LKKL[dL]KL-OH; N-terminus and C-terminus assumed)
IC50 ([1]; 48 h): > 50 µM
IC50 (HEK293T; 48 h): > 20 µM

IC50 (Panc-1; 48 h): 13 ± 2.7 µM
IC50 (BxPC-3; 48 h): 5.7 ± 2.3 µM
IC50 (SU.86.86): 5.2 ± 0.4 µM
IC50 (CFPAC-1; 48 h): 6.7 ± 0.1 µM
Molecule: CC(C)C[C@H](NC(=O)[C@H](CC(C)C)NC(=O)[C@@H](CCCCN)NC(=O)[C@@H](CCCCN)NC(=O)[C@H](CC(C)C)NC(=O)[C@@H](CC(C)C)NC(=O)[C@H](CCCCN)NC(=O)[C@H](CC(C)C)NC(=O)[C@@H](CC(C)C)NC(=O)[C@H](CC(C)C)NC(=O)[C@H](CCCCN)NC(=O)CNC(=O)CNC(=O)CNC(=O)[C@H](CCCNC(=N)N)NC(=O)[C@@H]1CCCN1C(=O)[C@H](Cc1ccc(O)cc1)NC(=O)[C@@H]1CCCN1C(=O)[C@@H](NC(=O)[C@H](CCCNC(=N)N)NC(=O)CNC(=O)[C@H](CCC(N)=O)NC(=O)[C@H](Cc1ccc(O)cc1)NC(=O)[C@@H]1CCCN1C(=O)[C@@H](NC(=O)[C@H](Cc1c[nH]c2ccccc12)NC(=O)[C@H](CCC(N)=O)NC(=O)[C@H](Cc1ccc(O)cc1)NC(=O)[C@@H](N)CC(N)=O)C(C)C)C(C)C)C(=O)N[C@@H](CCCCN)C(=O)N[C@H](CC(C)C)C(=O)N[C@@H](CC(C)C)C(=O)N[C@@H](CCCCN)C(=O)N[C@@H](CCCCN)C(=O)N[C@@H](CCCCN)C(=O)O [Sema3A(aa363-377)-kLytic] (H-NYQWVPYQGRVPYPRGGGKL[dL]LK[dL]L[dK][dK]LLK[dL]LKKK-OH; N-terminus and C-terminus assumed)
Annexin V-positive dead cells (SU8686; listed as Sema3A (363-377)-kLytic): increased
Annexin V-positive dead cells (SU8686; listed as Sema3A(363-377)-kLytic): induces Annexin V-positive expression
IC50 ([1]; Pancreatic epidermal cell, normal cells, 48 hours (Table 8), read-out: IC50): > 20 µM
IC50 (MRC-5; MRC-5 normal cells, 48 hours (Table 8)): > 50 µM
IC50 [3]: 37.5 µM

biosensor response compared with wild-type EGFR-binding peptide [2]: response of two fold of wild-type
Molecule: YRWYGYTPQNVI (EGFR binding peptide) [R-substituted peptide]
